Measured values taken from PubChem BioAssay (NCI).
Values joined by “and” are separate entries in the source; they are usually repeats but may differ in a detail not shown here. Identical values can stand only once.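 Step 1: Grow cells in 96-well plates. Step 2: Expose to compound for 48 hours at 5 concentrations. Step 3: Interpolate endpoints linearly; if unreached, use highest concentration. At the GI50, growth is halved. TGI is the concentration that stops growth completely.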

What was measured:
Test in all cases: DTP human tumour cell line panel, 48 h
[1] = system: COLO 205 colon
[2] = system: HCC-2998 colon
[3] = system: HCT-15 colon
[4] = system: IGROV1 ovarian
[5] = system: MALME-3M melanoma
[6] = system: NCI-H522 lung
[7] = system: OVCAR-4 ovarian
[8] = system: OVCAR-5 ovarian
[9] = system: RXF 393 renal
[10] = system: SF-295 CNS
[11] = system: SK-MEL-5 melanoma
[12] = system: SR leukemia
[13] = system: TK-10 renal
[14] = system: U251 CNS
[15] = system: UACC-257 melanoma
[16] = system: UO-31 renal

C=C(Br)CN(C(C)=O)C1CCCCC1
TGI [1]: > 100 µM | TGI [2]: > 100 µM | TGI [3]: > 100 µM | TGI [4]: > 100 µM | TGI [5]: > 100 µM | TGI [6]: > 100 µM | TGI [7]: > 100 µM | TGI [8]: > 100 µM | TGI [9]: > 100 µM | TGI [10]: > 100 µM | TGI [11]: > 100 µM | TGI [12]: > 100 µM | TGI [13]: > 100 µM | TGI [14]: > 100 µM | TGI [15]: > 100 µM | TGI [16]: > 100 µM

CC/C=C/C(=O)CC(O)(C(F)(F)F)C(F)(F)F
TGI [1]: > 100 µM | TGI [2]: > 100 µM | TGI [3]: > 100 µM | TGI [4]: > 100 µM | TGI [5]: > 100 µM | TGI [7]: > 100 µM | TGI [8]: > 100 µM | TGI [9]: > 100 µM | TGI [10]: > 100 µM | TGI [11]: > 100 µM | TGI [12]: > 100 µM | TGI [13]: > 100 µM | TGI [14]: > 100 µM | TGI [15]: > 100 µM | TGI [16]: > 100 µM

CN(C)CCCCN1c2ccccc2Sc2cc(N=[N+]=[N-])ccc21
TGI [1]: 3.09 µM | TGI [2]: 3.37 µM | TGI [3]: 4.53 µM | TGI [4]: 3.43 µM | TGI [5]: 3.34 µM | TGI [6]: 3.05 µM | TGI [7]: 6.35 µM | TGI [8]: 3.76 µM | TGI [9]: 10.6 µM | TGI [10]: 4.05 µM | TGI [11]: 3.18 µM | TGI [12]: > 100 µM | TGI [13]: 4.86 µM | TGI [14]: 4.27 µM | TGI [15]: 3.25 µM | TGI [16]: 3.66 µM

CN(/N=C/c1ccccn1)C1=NCCCCN1
TGI [1]: > 100 µM | TGI [2]: > 100 µM | TGI [3]: > 100 µM | TGI [4]: > 100 µM | TGI [5]: > 100 µM | TGI [6]: > 100 µM | TGI [7]: > 100 µM | TGI [8]: > 100 µM | TGI [9]: > 100 µM | TGI [10]: > 100 µM | TGI [11]: > 100 µM | TGI [12]: > 100 µM | TGI [13]: > 100 µM | TGI [14]: > 100 µM | TGI [15]: > 100 µM | TGI [16]: > 100 µM

O=c1c2cccnc2cc(-c2ccccc2)n1CCO
TGI [1]: > 100 µM | TGI [2]: > 100 µM | TGI [3]: > 100 µM | TGI [4]: > 100 µM | TGI [5]: > 100 µM | TGI [6]: > 100 µM | TGI [7]: > 100 µM | TGI [8]: > 100 µM | TGI [9]: > 100 µM | TGI [10]: > 100 µM | TGI [11]: > 100 µM | TGI [12]: > 100 µM | TGI [13]: > 100 µM | TGI [14]: > 100 µM | TGI [15]: > 100 µM | TGI [16]: > 100 µM

COc1ccc(/C=C2\CCCCCC2=O)cc1
TGI [1]: > 100 µM | TGI [2]: > 100 µM | TGI [3]: > 100 µM | TGI [4]: > 100 µM | TGI [5]: > 100 µM | TGI [6]: > 100 µM | TGI [7]: > 100 µM | TGI [8]: > 100 µM | TGI [9]: > 100 µM | TGI [10]: > 100 µM | TGI [11]: > 100 µM | TGI [12]: > 100 µM | TGI [13]: > 100 µM | TGI [14]: > 100 µM | TGI [15]: > 100 µM | TGI [16]: > 100 µM

O=C1c2c(ccc3c2CCC3)CC12Cc1cc3c(cc1C2)CCC3
TGI [1]: > 100 µM | TGI [2]: > 100 µM | TGI [3]: > 100 µM | TGI [4]: > 100 µM | TGI [5]: > 100 µM | TGI [6]: > 100 µM | TGI [7]: > 100 µM | TGI [8]: > 100 µM | TGI [9]: > 100 µM | TGI [10]: > 100 µM | TGI [11]: > 100 µM | TGI [12]: > 100 µM | TGI [13]: > 100 µM | TGI [14]: > 100 µM | TGI [15]: > 100 µM | TGI [16]: > 100 µM

O=C(CCc1ccc(O)cc1)NCCc1cccc(OCc2ccccc2)c1
TGI [1]: > 100 µM | TGI [2]: 41.3 µM | TGI [3]: > 100 µM | TGI [4]: > 100 µM | TGI [5]: 79.6 µM | TGI [6]: 99.3 µM | TGI [7]: > 100 µM | TGI [8]: > 100 µM | TGI [9]: > 100 µM | TGI [10]: > 100 µM | TGI [11]: 32.7 µM | TGI [12]: 36.5 µM | TGI [13]: 79.5 µM | TGI [14]: 64.9 µM | TGI [15]: 39.3 µM | TGI [16]: 53.9 µM

CCCn1c(SCC)c2cc3cc4ccccc4cc3cc2c1-c1nc(F)nc(F)n1
TGI [1]: > 100 µM | TGI [2]: > 100 µM | TGI [3]: > 100 µM | TGI [4]: > 100 µM | TGI [5]: > 100 µM | TGI [6]: > 100 µM | TGI [7]: > 100 µM | TGI [8]: > 100 µM | TGI [9]: > 100 µM | TGI [10]: > 100 µM | TGI [11]: > 100 µM | TGI [12]: > 100 µM | TGI [13]: > 100 µM | TGI [15]: > 100 µM | TGI [16]: > 100 µM

NC(N)=N/N=C/c1c(-c2ccc([N+](=O)[O-])cc2)nc2n1CCS2
TGI [1]: 7.8 µM | TGI [2]: 19.7 µM | TGI [3]: 36.7 µM | TGI [4]: 38.6 µM | TGI [5]: 36.6 µM | TGI [6]: 29.4 µM | TGI [7]: 27.7 µM | TGI [8]: 28 µM | TGI [9]: 23.4 µM | TGI [10]: 36.7 µM | TGI [11]: 32 µM | TGI [12]: 5.71 µM | TGI [13]: 31.5 µM | TGI [14]: 6.49 µM | TGI [15]: 35.6 µM | TGI [16]: 30.2 µM

COC(=O)C1=Cc2cc(OC)c(O)cc2[C@@H](c2ccc(O)c(OC)c2)[C@@H]1C(=O)OC
TGI [1]: > 100 µM | TGI [2]: > 100 µM | TGI [3]: > 100 µM | TGI [4]: > 100 µM | TGI [5]: > 100 µM | TGI [6]: > 100 µM | TGI [8]: > 100 µM | TGI [9]: > 100 µM | TGI [10]: > 100 µM | TGI [11]: > 100 µM | TGI [12]: > 100 µM | TGI [14]: > 100 µM | TGI [15]: > 100 µM | TGI [16]: > 100 µM

CCOC(=O)c1c(-c2ccc(O)c(OC)c2)c(C#N)c(=S)n(C2OC(COC(C)=O)C(OC(C)=O)C(OC(C)=O)C2OC(C)=O)c1-c1ccccc1 (stereo not given)
TGI [1]: > 100 µM | GI50 [2]: 35 µM and 90.1 µM | TGI [2]: > 100 µM | TGI [3]: > 100 µM | GI50 [4]: 18 µM and 79.7 µM | TGI [4]: 55.5 µM and > 100 µM | GI50 [5]: 20.9 µM and 62.3 µM | TGI [5]: 50.3 µM and > 100 µM | TGI [6]: 51.3 µM and 54.4 µM | TGI [7]: > 100 µM | TGI [8]: > 100 µM | TGI [9]: > 100 µM | TGI [10]: > 100 µM | GI50 [11]: 21.9 µM and 47.2 µM | TGI [11]: 65.6 µM and > 100 µM | TGI [12]: > 100 µM | TGI [14]: > 100 µM | TGI [15]: > 100 µM | TGI [16]: > 100 µM

CN(C)C(=O)Nc1cc2c3c(c1)CCCN3CCC2
TGI [1]: > 10 µM | TGI [2]: > 10 µM | TGI [3]: > 10 µM | TGI [4]: > 10 µM | TGI [5]: > 10 µM | TGI [6]: > 10 µM | TGI [7]: > 10 µM | TGI [9]: > 10 µM | TGI [10]: > 10 µM | TGI [11]: > 10 µM | TGI [12]: > 10 µM | TGI [13]: > 10 µM | TGI [14]: > 10 µM | TGI [15]: > 10 µM | TGI [16]: > 10 µM

COC1=C(N2CC2)C(=O)c2nc3n(c2C1=O)CCC3
TGI [1]: 2.13 µM | TGI [2]: 2.44 µM | TGI [3]: 1.55 µM | TGI [4]: 3.15 µM | TGI [5]: 0.827 µM | TGI [6]: 0.385 µM | TGI [7]: 0.526 µM | TGI [8]: 3.46 µM | TGI [9]: 0.261 µM | TGI [10]: 2.07 µM | TGI [11]: 2.56 µM | TGI [12]: 16.9 µM | TGI [13]: 7.08 µM | TGI [14]: 2.86 µM
